Molecular target: rLHR (Rattus norvegicus, UniProt P16235)
Test: Cellulase activity assay of supernatants of CK04 cells transfected with pCK71
Type: cell-based
Set-up: Full-length cDNAs encoding the LHRs of rat (r) and bovine (b) origin; expressed in transfected cells; host or cells: CK04: HEK293T stably cotransfected with pLEN-rLHR and pZeoSV2(+), clone 6
Conditions: CK04 + pCK71, supernatants 48 h post-induction
Description: Cellulase activity assay performed from cell culture supernatants 48 h post-induction.
A novel bLH-responsive microcapsule degradation system was established by placing an engineered secreted version of the lytic enzyme endo-1.4-beta-glucanase gene (cellulase) under control of PCRE. […] The protein had the estimated size of 57 kDa. Additionally, the functionality of the pCK71-encoded cellulase was evaluated by performing a cellulase activity assay (FIG. 12).
Cellulase was quantified using EnzCheck® fluorescent substrate (Molecular Probes, Eugene, Oreg., USA) according to the manufacturer's protocol: 20 μl of cell culture supernatant was centrifuged at 16,000×g for one minute to remove cell debris and 15 μl of appropriate dilutions in PBS (Invitrogen, cat. no. 21600-069) were transferred to a 384-well plate containing 15 μl sodium acetate buffer (200 mM sodium acetate, pH 5.5) per well supplemented with 3 μl substrate solution. Plates were incubated at 37° C. for 30 minutes and fluorescence intensity was measured subsequently at 340 nm (excitation wavelength) and 450 nm (emission wavelength) in a Genios Pro multiwell plate reader (Tecan A G, Maennedorf, Switzerland). Absolute cellulase levels were determined by comparing the fluorescence intensities to readings of standardized solutions containing known concentrations of Aspergillus niger cellulase (Sigma, cat. no. 22178). […]

Sequence of rLHR (P16235 27-700): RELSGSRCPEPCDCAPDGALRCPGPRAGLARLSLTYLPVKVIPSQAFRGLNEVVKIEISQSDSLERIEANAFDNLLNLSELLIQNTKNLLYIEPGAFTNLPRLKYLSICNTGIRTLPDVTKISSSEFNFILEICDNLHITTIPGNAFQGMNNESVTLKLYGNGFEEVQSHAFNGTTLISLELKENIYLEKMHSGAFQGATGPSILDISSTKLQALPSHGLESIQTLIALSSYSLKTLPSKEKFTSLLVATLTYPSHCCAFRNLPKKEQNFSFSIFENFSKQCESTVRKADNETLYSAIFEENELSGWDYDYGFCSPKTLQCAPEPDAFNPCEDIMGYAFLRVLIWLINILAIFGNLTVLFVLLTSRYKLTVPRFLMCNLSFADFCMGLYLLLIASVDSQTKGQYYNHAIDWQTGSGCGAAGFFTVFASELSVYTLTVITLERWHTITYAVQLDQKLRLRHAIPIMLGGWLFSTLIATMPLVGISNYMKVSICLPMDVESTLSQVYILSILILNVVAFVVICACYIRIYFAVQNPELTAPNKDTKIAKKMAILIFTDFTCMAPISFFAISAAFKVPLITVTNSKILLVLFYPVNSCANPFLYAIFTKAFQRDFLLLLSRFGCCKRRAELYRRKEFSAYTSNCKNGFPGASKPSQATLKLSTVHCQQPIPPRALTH

bovine luteinizing hormone [bLH]
bLH-dependent increase in cellulase activity: 8.4±0.2 fold

Reference: patent US8506950B2, “Degradable microcapsules” (ETH Zurich, priority 2008, dated 2013)
